Measured values: the NIST ThermoML archive (doi:10.1021/je0497698)
± gives the expanded uncertainty stated by the source.

Conditions: Liquid

vapor or sublimation pressure (273.15 K) [kPa] | vapor or sublimation pressure (283.15 K) [kPa] | vapor or sublimation pressure (293.15 K) [kPa] | vapor or sublimation pressure (303.15 K) [kPa] | vapor or sublimation pressure (313.15 K) [kPa] | Structure (SMILES)
587.8 ± 2.1 | 781.2 ± 2.1 | 1020.2 ± 2.2 | 1308.2 ± 2.3 | 1650.8 ± 2.5 | C=CC [propene]
816.8 ± 2.2 | 1111.8 ± 2.2 | 1480.2 ± 2.4 | 1930.4 ± 2.5 | 2478 ± 2.8 | FCF [difluoromethane]
